Measurements taken from ChEMBL document CHEMBL1140830, “Ergoline derivatives as highly potent and selective antagonists at the somatostatin sst 1 receptor” (Bioorg Med Chem Lett, 2008).

Legend:
[1] = target: Somatostatin receptor type 2 (Rattus norvegicus, UniProt P30680); experiment: Displacement of [125I][Tyr3]octreotide from sst2 receptor in rat cortex
[2] = target: Somatostatin receptor type 1 (Rattus norvegicus, UniProt P28646); experiment: Displacement of [125I]SRIF14 from sst1 receptor in rat cortex
[3] = target: Somatostatin receptor type 5 (Homo sapiens, UniProt P35346); experiment: Binding affinity to human recombinant sst5 receptor
[4] = target: Somatostatin receptor type 2 (Homo sapiens, UniProt P30874); experiment: Binding affinity to human recombinant sst2 receptor
[5] = target: Somatostatin receptor type 4 (Homo sapiens, UniProt P31391); experiment: Binding affinity to human recombinant sst4 receptor
[6] = target: Somatostatin receptor type 3 (Homo sapiens, UniProt P32745); experiment: Binding affinity to human recombinant sst3 receptor
[7] = target: T1, Somatostatin receptor type 1 (Homo sapiens, UniProt P30872); experiment: Binding affinity to human recombinant sst1 receptor
[8] = target: T1, Somatostatin receptor type 1; experiment: Antagonist activity at human recombinant sst1 receptor in CCl39 cells assessed as SRIF14-induced inhibition of forskolin-stimulated adenylate cyclase activity; assay type: functional, cell-based
[9] = target: T1, Somatostatin receptor type 1; experiment: Antagonist activity at human recombinant sst1 receptor assessed as inhibition of SRIF28-induced luciferase activity; assay type: functional
[10] = target: T2, D(4) dopamine receptor (Homo sapiens, UniProt P21917); experiment: Binding affinity to human dopamine D4 receptor
T2 sequence (P21917 whole entry): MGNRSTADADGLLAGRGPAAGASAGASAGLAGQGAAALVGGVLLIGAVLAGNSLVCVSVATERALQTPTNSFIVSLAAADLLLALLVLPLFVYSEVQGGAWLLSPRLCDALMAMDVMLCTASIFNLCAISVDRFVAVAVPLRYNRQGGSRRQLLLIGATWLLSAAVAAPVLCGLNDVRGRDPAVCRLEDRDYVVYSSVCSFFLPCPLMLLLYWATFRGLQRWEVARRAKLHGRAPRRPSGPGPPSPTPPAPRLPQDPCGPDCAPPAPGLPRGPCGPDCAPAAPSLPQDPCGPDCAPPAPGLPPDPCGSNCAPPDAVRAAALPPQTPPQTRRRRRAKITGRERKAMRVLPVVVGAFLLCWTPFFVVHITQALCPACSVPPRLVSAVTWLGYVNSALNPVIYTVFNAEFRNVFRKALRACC

[11] = Oral bioavailability in rat; assay type: ADME, organism-based; conditions: in vivo
[12] = Ratio of drug level in brain to plasma in rat at 30 umol/kg after 10 mins; assay type: ADME; conditions: brain and plasma
[13] = target: D(2) dopamine receptor (Homo sapiens, UniProt P14416); experiment: Binding affinity to human dopamine D2 receptor
[14] = Ratio of drug level in brain to plasma in rat at 30 umol/kg after 24 hrs; assay type: ADME; conditions: brain and plasma
[15] = target: T3, 5-hydroxytryptamine receptor 1A (Homo sapiens, UniProt P08908); experiment: Binding affinity to human 5HT1A receptor
T3 sequence (P08908 whole entry): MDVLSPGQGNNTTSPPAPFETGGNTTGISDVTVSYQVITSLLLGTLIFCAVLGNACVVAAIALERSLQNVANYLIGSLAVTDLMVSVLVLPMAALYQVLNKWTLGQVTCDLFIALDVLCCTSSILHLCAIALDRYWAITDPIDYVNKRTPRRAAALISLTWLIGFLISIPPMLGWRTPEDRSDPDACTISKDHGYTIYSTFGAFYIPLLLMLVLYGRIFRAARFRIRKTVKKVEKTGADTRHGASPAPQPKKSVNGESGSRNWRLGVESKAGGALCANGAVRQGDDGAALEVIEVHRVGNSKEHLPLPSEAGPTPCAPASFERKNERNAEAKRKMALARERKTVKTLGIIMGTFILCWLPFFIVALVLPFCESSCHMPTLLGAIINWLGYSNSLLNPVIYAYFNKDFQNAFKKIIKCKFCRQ

Sequence of Somatostatin receptor type 3 (P32745 whole entry): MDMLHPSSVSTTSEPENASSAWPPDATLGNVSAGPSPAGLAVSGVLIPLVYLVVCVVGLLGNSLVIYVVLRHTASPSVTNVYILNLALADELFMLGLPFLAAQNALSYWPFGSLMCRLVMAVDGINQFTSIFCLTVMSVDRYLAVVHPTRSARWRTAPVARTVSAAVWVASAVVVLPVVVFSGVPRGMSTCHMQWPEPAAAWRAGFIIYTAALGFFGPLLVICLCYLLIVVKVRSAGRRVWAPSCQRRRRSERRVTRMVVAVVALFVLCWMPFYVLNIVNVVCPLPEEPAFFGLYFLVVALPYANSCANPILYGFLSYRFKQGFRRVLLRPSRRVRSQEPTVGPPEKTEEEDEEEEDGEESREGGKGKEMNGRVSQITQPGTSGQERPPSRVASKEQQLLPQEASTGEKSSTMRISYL
T1 sequence (P30872 whole entry): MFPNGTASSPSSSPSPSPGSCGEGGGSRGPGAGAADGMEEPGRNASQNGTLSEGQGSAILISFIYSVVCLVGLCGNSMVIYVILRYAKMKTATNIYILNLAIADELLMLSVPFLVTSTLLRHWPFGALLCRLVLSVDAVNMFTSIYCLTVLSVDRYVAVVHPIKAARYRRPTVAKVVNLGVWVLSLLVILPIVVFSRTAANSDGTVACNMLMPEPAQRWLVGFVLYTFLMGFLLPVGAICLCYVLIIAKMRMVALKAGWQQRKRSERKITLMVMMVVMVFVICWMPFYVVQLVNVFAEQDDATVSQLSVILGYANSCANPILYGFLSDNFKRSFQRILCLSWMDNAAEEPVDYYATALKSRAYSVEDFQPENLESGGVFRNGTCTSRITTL
Sequence of Somatostatin receptor type 2 (Rattus norvegicus, UniProt P30680) (P30680 whole entry): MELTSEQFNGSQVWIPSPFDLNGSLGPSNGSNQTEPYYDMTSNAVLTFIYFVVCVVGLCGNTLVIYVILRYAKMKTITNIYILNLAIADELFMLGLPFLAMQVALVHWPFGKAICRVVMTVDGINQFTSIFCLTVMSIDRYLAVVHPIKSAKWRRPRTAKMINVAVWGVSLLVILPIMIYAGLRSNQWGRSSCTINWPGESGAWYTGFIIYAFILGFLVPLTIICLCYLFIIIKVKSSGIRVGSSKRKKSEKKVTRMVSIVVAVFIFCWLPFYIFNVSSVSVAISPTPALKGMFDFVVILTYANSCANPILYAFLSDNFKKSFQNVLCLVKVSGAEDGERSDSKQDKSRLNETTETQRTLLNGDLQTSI
Sequence of Somatostatin receptor type 2 (Homo sapiens, UniProt P30874) (P30874 whole entry): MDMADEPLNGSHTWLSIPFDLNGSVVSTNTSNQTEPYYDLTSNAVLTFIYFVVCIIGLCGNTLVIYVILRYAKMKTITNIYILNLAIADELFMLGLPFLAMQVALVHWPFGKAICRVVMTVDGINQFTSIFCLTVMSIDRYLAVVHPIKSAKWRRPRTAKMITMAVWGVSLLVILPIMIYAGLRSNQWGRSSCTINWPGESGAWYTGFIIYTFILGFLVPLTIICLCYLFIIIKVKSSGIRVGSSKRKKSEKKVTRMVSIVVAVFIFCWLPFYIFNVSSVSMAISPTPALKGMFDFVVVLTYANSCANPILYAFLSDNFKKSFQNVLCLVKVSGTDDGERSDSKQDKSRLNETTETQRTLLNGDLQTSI
Sequence of Somatostatin receptor type 4 (P31391 whole entry): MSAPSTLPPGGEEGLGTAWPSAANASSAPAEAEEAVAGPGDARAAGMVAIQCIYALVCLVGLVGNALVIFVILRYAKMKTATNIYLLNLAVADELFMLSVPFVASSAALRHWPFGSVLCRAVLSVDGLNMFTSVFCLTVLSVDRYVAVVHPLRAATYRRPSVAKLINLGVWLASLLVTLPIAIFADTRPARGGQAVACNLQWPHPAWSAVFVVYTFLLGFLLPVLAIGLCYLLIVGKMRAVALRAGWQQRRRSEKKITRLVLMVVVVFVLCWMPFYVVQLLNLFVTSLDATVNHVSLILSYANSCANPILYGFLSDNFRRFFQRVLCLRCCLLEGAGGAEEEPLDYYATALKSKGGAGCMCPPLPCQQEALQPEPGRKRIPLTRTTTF
Sequence of Somatostatin receptor type 5 (P35346 whole entry): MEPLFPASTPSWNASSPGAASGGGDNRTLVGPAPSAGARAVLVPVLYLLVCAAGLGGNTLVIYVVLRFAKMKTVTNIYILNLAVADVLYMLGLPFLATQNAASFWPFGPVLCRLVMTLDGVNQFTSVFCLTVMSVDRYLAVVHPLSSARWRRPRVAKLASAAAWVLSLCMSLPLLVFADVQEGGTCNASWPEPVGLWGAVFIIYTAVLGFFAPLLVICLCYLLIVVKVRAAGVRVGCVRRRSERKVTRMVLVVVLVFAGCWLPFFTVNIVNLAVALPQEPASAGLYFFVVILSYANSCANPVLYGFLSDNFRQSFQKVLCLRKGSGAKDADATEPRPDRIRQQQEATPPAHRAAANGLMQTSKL
Sequence of Somatostatin receptor type 1 (Rattus norvegicus, UniProt P28646) (P28646 whole entry): as the sequence (P30872 whole entry) above, with S8P, S11T, P16S, S20G, G25V, G26C, A32S, A45S, T385A, T389S counted along it
Sequence of D(2) dopamine receptor (P14416 whole entry): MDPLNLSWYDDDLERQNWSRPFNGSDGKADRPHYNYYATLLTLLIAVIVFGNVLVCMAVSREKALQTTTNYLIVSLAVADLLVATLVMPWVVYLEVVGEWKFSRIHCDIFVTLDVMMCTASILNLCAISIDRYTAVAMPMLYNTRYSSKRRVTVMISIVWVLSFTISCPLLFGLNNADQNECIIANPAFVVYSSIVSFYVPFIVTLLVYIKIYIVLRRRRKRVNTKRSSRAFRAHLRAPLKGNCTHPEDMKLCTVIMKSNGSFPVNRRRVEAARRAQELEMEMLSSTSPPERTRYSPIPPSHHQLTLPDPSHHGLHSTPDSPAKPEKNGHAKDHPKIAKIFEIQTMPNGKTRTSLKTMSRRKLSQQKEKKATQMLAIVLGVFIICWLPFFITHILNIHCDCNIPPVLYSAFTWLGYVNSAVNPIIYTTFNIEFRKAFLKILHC

| SMILES | Kd [1] | Kd [2] | other results |
| --- | --- | --- | --- |
| CN1C[C@@H](C(=O)N2CCN(c3ccc4nonc4c3)CC2)C[C@H]2c3cccc4[nH]c(Br)c(c34)C[C@@H]21 | 12600 nM | 182 nM | Kd [3]: 23400 nM; Kd [4]: 3890 nM; Kd [5]: 5620 nM; Kd [6]: 7240 nM; Kd [7]: 501 nM |
| CSc1[nH]c2cccc3c2c1C[C@@H]1[C@@H]3C[C@@H](C(=O)N2CCN(c3ccccn3)CC2)CN1C | 8510 nM | 2.4 nM |  |
| CN1C[C@@H](C(=O)N2CCN(c3cccc(=O)n3C)CC2)C[C@H]2c3cccc4[nH]c(Br)c(c34)C[C@@H]21 | 20400 nM | 417 nM | Kd [3]: 69200 nM; Kd [4]: 9330 nM; Kd [5]: 8130 nM; Kd [6]: 5370 nM; Kd [7]: 1950 nM |
| CN1C[C@H](C(=O)N2CCN(c3ccccn3)CC2)C[C@@H]2c3cccc4[nH]cc(c34)C[C@H]21 | 17800 nM | 14.1 nM |  |
| CN1C[C@H](C(=O)N2CCN(c3ccc4nonc4c3)CC2)C[C@@H]2c3cccc4[nH]c(Cl)c(c34)C[C@H]21 | 5130 nM | 0.389 nM |  |
| CN1C[C@H](C(=O)N2CCN(c3ccc4nsnc4n3)CC2)C[C@@H]2c3cccc4[nH]c(Cl)c(c34)C[C@H]21 | 3890 nM | 0.24 nM |  |
| O=C([C@@H]1C[C@@H]2c3cccc4[nH]c(Br)c(c34)C[C@H]2N(CCCO)C1)N1CCN(c2ccccn2)CC1 |  | 2340 nM |  |
| CN1C[C@H](C(=O)N2CCN(c3ccc(Cl)cc3)CC2)C[C@@H]2c3cccc4[nH]cc(c34)C[C@H]21 | 2190 nM | 19.5 nM |  |
| CN1C[C@H](C(=O)N2CCN(c3ccccn3)CC2)C[C@@H]2c3cccc4[nH]c(I)c(c34)C[C@H]21 | 5620 nM | 16.6 nM |  |
| CN1C[C@H](C(=O)N2CCN(c3cccc(=O)n3C)CC2)C[C@@H]2c3cccc4[nH]c(Cl)c(c34)C[C@H]21 | 49000 nM | 0.389 nM |  |
| CN1C[C@H](C(=O)N2CCN(c3ccc4nsnc4n3)CC2)C[C@@H]2c3cccc4[nH]cc(c34)C[C@H]21 | 3020 nM | 1.02 nM |  |
| CN1C[C@H](C(=O)N2CCN(c3ccccn3)CC2)C[C@@H]2c3cccc4[nH]c([S+](C)[O-])c(c34)C[C@H]21 (stereo partly specified) | 17800 nM | 2630 nM |  |
| CCN1C[C@H](C(=O)N2CCN(c3ccc(F)c(F)c3)CC2)C[C@@H]2c3cccc4[nH]c(Br)c(c34)C[C@H]21 | 13200 nM | 0.977 nM |  |
| CN1C[C@H](C(=O)N2CCN(c3ccccn3)CC2)C[C@@H]2c3cccc4[nH]c(O)c(c34)C[C@H]21 | 8510 nM | 240 nM |  |
| CC(C)CCN1C[C@H](C(=O)N2CCN(c3ccccn3)CC2)C[C@@H]2c3cccc4[nH]c(Br)c(c34)C[C@H]21 |  | 1740 nM |  |
| O=C([C@H]1CN[C@@H]2Cc3c(Br)[nH]c4cccc(c34)[C@H]2C1)N1CCN(c2ccccn2)CC1 | 7940 nM | 170 nM |  |
| CN1C[C@H](C(=O)N2CCN(c3ccccn3)CC2)C[C@@H]2c3cccc4[nH]c(Br)c(c34)C[C@H]21 | 16600 nM | 4.47 nM |  |

| SMILES | Kd [1] | Kd [2] | other results |
| --- | --- | --- | --- |
| CN1C[C@H](C(=O)N2CCN(c3ccc(Cl)cc3)CC2)C[C@@H]2c3cccc4[nH]c(Br)c(c34)C[C@H]21 | 2000 nM | 5.5 nM |  |
| CCn1c(N2CCN(C(=O)[C@@H]3C[C@@H]4c5cccc6[nH]c(Cl)c(c56)C[C@H]4N(C)C3)CC2)cccc1=O | 12000 nM | 0.38 nM |  |
| CN1C[C@H](C(=O)N2CCN(c3ccc4nsnc4n3)CC2)C[C@@H]2c3cccc4[nH]c(Br)c(c34)C[C@H]21 | 4570 nM | 0.372 nM |  |
| CN1C[C@H](C(=O)N2CCN(c3ccc([N+](=O)[O-])cc3)CC2)C[C@@H]2c3cccc4[nH]c(Cl)c(c34)C[C@H]21 | 8910 nM | 1.26 nM |  |
| CN1C[C@H](C(=O)N2CCN(c3ccc(F)c(F)c3)CC2)C[C@@H]2c3cccc4[nH]c(Cl)c(c34)C[C@H]21 | 12900 nM | 0.603 nM |  |
| CN1C[C@H](C(=O)N2CCN(c3ccccn3)CC2)C[C@@H]2c3cccc4[nH]c(Cl)c(c34)C[C@H]21 |  | 12.9 nM |  |
| COCCN1C[C@H](C(=O)N2CCN(c3ccccn3)CC2)C[C@@H]2c3cccc4[nH]c(Br)c(c34)C[C@H]21 |  | 1480 nM |  |
| CN1C[C@H](C(=O)N2CCN(c3cccc(=O)n3C)CC2)C[C@@H]2c3cccc4[nH]c(Br)c(c34)C[C@H]21 [ERGOLINE] |  |  | pKb [8]: 7.85; pKb [9]: 8.85 |
| CN1C[C@H](C(=O)N2CCN(c3ccc(Cl)cc3)CC2)C[C@@H]2c3cccc4[nH]c(Cl)c(c34)C[C@H]21 | 5890 nM | 4.17 nM |  |
| CN1C[C@H](C(=O)N2CCN(c3ccc4nonc4c3)CC2)C[C@@H]2c3cccc4[nH]c(Br)c(c34)C[C@H]21 | 6460 nM | 0.372 nM | Kd [10]: 77.6 nM; pKb [8]: 7.62; bioavailability [11]: 48%; Kp at 10 min [12]: 0.7; Kd [13]: 126 nM; Kp at 24 h [14]: 1.7; Kd [3]: 6460 nM; pKb [9]: 9.42; Kd [4]: 6760 nM; Kd [5]: 3630 nM; Kd [6]: 2340 nM; Kd [15]: 28.2 nM; Kd [7]: 1.23 nM |
| CCn1c(N2CCN(C(=O)[C@@H]3C[C@@H]4c5cccc6[nH]c(Br)c(c56)C[C@H]4N(C)C3)CC2)cccc1=O | 26300 nM | 0.282 nM |  |
| CCCCN1C[C@H](C(=O)N2CCN(c3ccccn3)CC2)C[C@@H]2c3cccc4[nH]c(Br)c(c34)C[C@H]21 |  | 1150 nM |  |
| CN1C[C@H](C(=O)N2CCN(c3ccc([N+](=O)[O-])cc3)CC2)C[C@@H]2c3cccc4[nH]c(Br)c(c34)C[C@H]21 | 7240 nM | 1.35 nM |  |
| CN1C[C@H](C(=O)N2CCN(c3ccc([N+](=O)[O-])cc3)CC2)C[C@@H]2c3cccc4[nH]cc(c34)C[C@H]21 | 3160 nM | 3.89 nM |  |
| CN1C[C@H](C(=O)N2CCN(c3ccccn3)CC2)C[C@@H]2c3cccc4[nH]c(S(C)(=O)=O)c(c34)C[C@H]21 | 7760 nM | 309 nM |  |
| CN1C[C@H](C(=O)N2CCN(c3cccc(=O)n3C)CC2)C[C@@H]2c3cccc4[nH]cc(c34)C[C@H]21 | 7760 nM | 0.759 nM |  |
| CN1C[C@H](C(=O)N2CCN(c3ccc(F)c(F)c3)CC2)C[C@@H]2c3cccc4[nH]c(Br)c(c34)C[C@H]21 | 8130 nM | 0.49 nM |  |
